Data on eleven compounds can be found in patent US20250270200A1, “CTPS1 INHIBITORS AND USES THEREOF” (Nimbus Clotho, Inc., priority 2022, published 2025).

For orientation: IC50 means the concentration that gives 50% inhibition.

Counter-ions that a name gives are not always drawn.

The assay concerns the target T1, human CTPS1 (Homo sapiens, UniProt P17812).
T1 sequence (P17812 1-591): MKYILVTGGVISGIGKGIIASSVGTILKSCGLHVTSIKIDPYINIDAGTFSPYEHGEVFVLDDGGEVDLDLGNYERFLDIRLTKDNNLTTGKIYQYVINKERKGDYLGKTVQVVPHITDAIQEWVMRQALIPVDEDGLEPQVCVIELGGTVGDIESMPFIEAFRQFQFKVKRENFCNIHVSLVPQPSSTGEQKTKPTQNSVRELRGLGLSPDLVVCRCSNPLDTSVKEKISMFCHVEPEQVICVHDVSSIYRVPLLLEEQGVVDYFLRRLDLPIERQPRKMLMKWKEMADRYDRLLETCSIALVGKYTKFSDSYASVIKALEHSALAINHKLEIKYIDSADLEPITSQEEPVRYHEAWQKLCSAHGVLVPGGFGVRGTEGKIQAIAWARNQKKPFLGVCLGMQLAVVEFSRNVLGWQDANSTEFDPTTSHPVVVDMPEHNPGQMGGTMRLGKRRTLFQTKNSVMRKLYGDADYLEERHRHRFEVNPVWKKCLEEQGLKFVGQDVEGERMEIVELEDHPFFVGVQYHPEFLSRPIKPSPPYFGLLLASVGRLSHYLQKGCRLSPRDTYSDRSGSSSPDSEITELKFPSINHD
Nature of the assay: ADP-Glo assay, human CTPS1 enzyme inhibition. Format: biochemical. The settings on record: wild-type human CTPS1, 25 nM enzyme; ADP-Glo; read-out: ADP-Glo_WT_hCTPS1—25 nM_IC50 (IC50). Here is the method:
The enzyme inhibitory activities of the compounds of the invention against the target of interest were determined using the ADP-Glo™ assay (Promega). Assays for human CTPS1 and CTPS2 were performed in 1× assay buffer containing 50 mM HEPES (Life Technologies), 10 mM Mg2+, 5 mM KCl, 2 mM DTT, 0.01% F-127, pH to 7.4 accordingly. All reagents are from Sigma-Aldrich, unless specified otherwise. Purified human full length active N-terminal FLAG-8×HIS-TEV tagged CTPS1 (UniprotKB—P17812, […]-CTPS1[1-591]) was generated using a mammalian expression system at Viva Biotech (Shanghai) Ltd.
Purified human CTPS1 protein was prepared in 1× assay buffer to the final working protein concentration required for the reaction. A 2.5 μL volume per well of human CTPS 1 protein was mixed with 0.1 μL per well of test compound dissolved in DMSO and pre-incubated at 25 degrees C. for 10 minutes. 2.5 μL per well of the reaction precursors ATP (UltraPure ATP from ADP-Glo™ kit) and UTP were then added and pre-incubated for an additional 10 minutes at 25 degrees C. Finally, the reaction was initiated by the addition of 5 μL of the reaction precursors L-glutamine and GTP. The final concentration of all reaction components in the assay: ATP (120 μM), UTP (160 μM), GTP (60 μM), L-Glutamine (100 μM), DMSO (1%), hCTPS1 (25 nM). This mixture was incubated for an appropriate amount of time within the determined linear phase of the reaction at 25 degrees C. under sealed plate conditions with constant agitation at 500 revolutions per minute (rpm). ADP-Glo™ reagent was added for 60 minutes (10 μL per well) and subsequently ADP-Glo™ development reagent was added for 60 minutes (20 μL per well) prior to signal detection in a microplate reader (Envision Multilabel Reader, Perkin Elmer). Following each reagent addition over the course of the assay, assay plates were pulse centrifuged for 1 minute at 1000 rpm.
The enzyme converts ATP to ADP and the ADP-Glo™ reagent subsequently depletes any remaining ATP in the reaction system. The ADP-Glo™ detection reagents converts the ADP that has been produced by the enzyme back into ATP, which is then utilized as a substrate together with luciferin for the enzyme luciferase. Light generated by this chemiluminescent reaction is quantified and is directly proportional to the amount of ADP produced by the CTPS1 enzyme reaction. […]
A general note: In ADP-Glo the light output rises with the ADP produced.
As for `CCOc1cncc(-c2ccc(C(=O)N[C@H](COC)c3cc(NS(=O)(=O)C4CC4)ccn3)c(F)c2)n1` [I-283, (S)-N-(1-(4-(cyclopropanesulfonamido)pyridin-2-yl)-2-methoxyethyl)-4-(6-ethoxypyrazin-2-yl)-2-fluorobenzamide], the IC50 is 50 to 100 nM. Turning to `CCOc1cncc(-c2cnc(C(=O)N[C@@H](c3cccc(NS(=O)(=O)C(F)F)c3)[C@H]3CCOC3)s2)n1` [I-190, N-((R)-(3-((difluoromethyl)sulfonamido)phenyl)((R)-tetrahydrofuran-3-yl)methyl)-5-(6-ethoxypyrazin-2-yl)thiazole-2-carboxamide], the IC50 was 5 to 25 nM. The same measure for `CCOc1cncc(-c2cnc(C(=O)N[C@H](CN3CCCCC3)c3cccc(NS(=O)(=O)C(F)F)c3)s2)n1` [I-218, (S)-N-(1-(3-((difluoromethyl)sulfonamido)phenyl)-2-(piperidin-1-yl)ethyl)-5-(6-ethoxypyrazin-2-yl)thiazole-2-carboxamide]: 25 to 50 nM; for `CCOc1ccn2ncc(-c3cnc(C(=O)NCc4cc(NS(=O)(=O)C5CC5)ccn4)s3)c2c1` [I-170, N-((4-(cyclopropanesulfonamido)pyridin-2-yl)methyl)-5-(5-ethoxypyrazolo[1,5-a]pyridin-3-yl)thiazole-2-carboxamide]: more than 100 nM. The same measure for `CCOc1cncc(-c2cnc(C(=O)N[C@@H](CN3CC[C@](C)(O)C3)c3cccc(NS(=O)(=O)C(F)F)c3)s2)n1` [I-209, N-((R)-1-(3-((difluoromethyl)sulfonamido)phenyl)-2-((S)-3-hydroxy-3-methylpyrrolidin-1-yl)ethyl)-5-(6-ethoxypyrazin-2-yl)thiazole-2-carboxamide, formic acid salt]: 5 to 25 nM; for `CCOc1cncc(-c2cnc(C(=O)N[C@@H](c3cc(NS(=O)(=O)C4CC4)ccn3)C(C)(C)CN(C)C)s2)n1` [I-43, (R)-N-(1-(4-(cyclopropanesulfonamido)pyridin-2-yl)-3-(dimethylamino)-2,2-dimethylpropyl)-5-(6-ethoxypyrazin-2-yl)thiazole-2-carboxamide]: 5 to 25 nM. As to `CCOc1cncc(-c2cnc(C(=O)N[C@@H](c3cc(NS(=O)(=O)C4CC4)ccn3)[C@@H](C)COC)s2)n1` [I-235, N-((1R,2R)-1-(4-(cyclopropanesulfonamido)pyridin-2-yl)-3-methoxy-2-methylpropyl)-5-(6-ethoxypyrazin-2-yl)thiazole-2-carboxamide], the IC50 was in the range of 5 to 25 nM. The figure for `O=C(N[C@@H](c1cc(NS(=O)(=O)C2CC2)ccn1)C1CCOCC1)c1ncc(-c2cnn3ccc(Cl)cc23)s1` [I-86, (R)-5-(5-chloropyrazolo[1,5-a]pyridin-3-yl)-N-((4-(cyclopropanesulfonamido)pyridin-2-yl)(tetrahydro-2H-pyran-4-yl)methyl)thiazole-2-carboxamide] is 5 to 25 nM; for `CCOc1cncc(-c2cnc(C(=O)N[C@@H](CN3C[C@H]4C[C@@H]3CO4)c3cncc(NS(=O)(=O)C4CC4)n3)s2)n1` [I-252, N-((S)-2-((1R,4R)-2-oxa-5-azabicyclo[2.2.1]heptan-5-yl)-1-(6-(cyclopropanesulfonamido)pyrazin-2-yl)ethyl)-5-(6-ethoxypyrazin-2-yl)thiazole-2-carboxamide, formic acid salt] it is 25 to 50 nM. The figure for `CCOc1cncc(-c2cnc(C(=O)N[C@H](CN3CC4(CCC4)C3)c3cc(NS(=O)(=O)C4CC4)ccn3)s2)n1` [I-154, (R)-N-(1-(4-(cyclopropanesulfonamido)pyridin-2-yl)-2-(2-azaspiro[3.3]heptan-2-yl)ethyl)-5-(6-ethoxypyrazin-2-yl)thiazole-2-carboxamide] is 5 to 25 nM; for `CCOc1cncc(-c2cnc(C(=O)N[C@@H](CN3CCCC3=O)c3cc(NS(=O)(=O)C4CC4)ccn3)s2)n1` [I-138, (S)-N-(1-(4-(cyclopropanesulfonamido)pyridin-2-yl)-2-(2-oxopyrrolidin-1-yl)ethyl)-5-(6-ethoxypyrazin-2-yl)thiazole-2-carboxamide] it is 5 to 25 nM.
